Measured values published in PubChem BioAssay (NCI).
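The compound was tested at five concentrations on cells cultured in 96-well plates, with a 48-hour exposure period. GI50 marks 50% less growth. TGI is the concentration that stops growth completely.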

Tests used:
Assay in all cases: NCI anticancer screen, dose series, 48 h
COLO 205 colon = test system: COLO 205 colon
HCT-15 colon = test system: HCT-15 colon
HOP-62 NSCLC = test system: HOP-62 NSCLC
HOP-92 NSCLC = test system: HOP-92 NSCLC
KM12 colon = test system: KM12 colon
OVCAR-3 ovarian = test system: OVCAR-3 ovarian
OVCAR-5 ovarian = test system: OVCAR-5 ovarian
SF-539 CNS = test system: SF-539 CNS
SK-MEL-28 melanoma = test system: SK-MEL-28 melanoma
UACC-62 melanoma = test system: UACC-62 melanoma

| Structure (SMILES) | GI50 (COLO 205 colon) [nM] | TGI (COLO 205 colon) [µM] | GI50 (HCT-15 colon) [nM] | TGI (HCT-15 colon) [µM] | GI50 (HOP-62 NSCLC) [nM] | TGI (HOP-62 NSCLC) [µM] | GI50 (HOP-92 NSCLC) [nM] | TGI (HOP-92 NSCLC) [µM] | GI50 (KM12 colon) [nM] | TGI (KM12 colon) [µM] | GI50 (OVCAR-3 ovarian) [µM] | TGI (OVCAR-3 ovarian) [µM] | GI50 (OVCAR-5 ovarian) [nM] | TGI (OVCAR-5 ovarian) [µM] | GI50 (SF-539 CNS) [µM] | TGI (SF-539 CNS) [µM] | GI50 (SK-MEL-28 melanoma) [nM] | TGI (SK-MEL-28 melanoma) [µM] | GI50 (UACC-62 melanoma) [µM] | TGI (UACC-62 melanoma) [µM] |
| --- | --- | --- | --- | --- | --- | --- | --- | --- | --- | --- | --- | --- | --- | --- | --- | --- | --- | --- | --- | --- |
| ClCc1c(Cl)c(Cl)c(Cl)c(CCl)c1Cl | 1830 | 3.33 | 1520 | 2.85 | 2150 | 4.25 | 1550 | 3.15 | 1850 | 3.48 | 1.86 | 3.26 | 1930 | 4.18 | 3.72 | 13.5 | 1950 | 3.96 | 1.61 | 3.13 |
| COC(=O)c1cc(C#Cc2cc(OC)ccc2OC)ccc1OC |  | 52.3 |  | > 100 |  |  |  | 85.9 |  | > 100 | 13.6 | 77.6 |  | > 100 | 81.1 | > 100 |  | > 100 | 29.3 | > 100 |
| CN(C)c1ccc(N=Nc2ccccn2)cc1 |  | 21.8 |  | > 100 |  | > 100 |  | > 100 |  | > 100 |  | > 100 |  | > 100 |  | > 100 |  | > 100 |  | > 100 |
| COc1cc[n+](C)cc1 |  | > 100 |  | > 100 |  | > 100 |  | > 100 |  | > 100 |  | > 100 |  | > 100 |  | > 100 |  | > 100 |  | > 100 |
| COc1ccc(NC(=O)/C(CC2=Nc3ccc([N+](=O)[O-])cc3NC2O)=N\NC(=O)C[N+](C)(C)C)c(OC)c1 (stereo not drawn) |  | > 100 |  | > 100 |  | > 100 |  | > 100 |  | > 100 |  | > 100 |  | > 100 |  | > 100 |  | > 100 |  | > 100 |
| Cc1nc2ccccc2c(=O)[nH]1 |  | > 100 |  | > 100 |  | > 100 |  | > 100 |  | > 100 |  | > 100 |  | > 100 |  | > 100 |  | > 100 |  | > 100 |
| N#Cc1c(NC(=S)NC(=O)c2ccccc2)nc2c(c1-c1ccccc1)CCCC2 |  | > 100 |  | > 100 |  | > 100 |  |  |  | > 100 |  | > 100 |  | > 100 |  |  |  | > 100 |  | > 100 |
| C=C1C(=O)OC2C1CC(O)/C(C)=C\CCC1(C)OC21 (stereo not drawn) |  | 89.9 |  | 33.5 |  | 49.3 |  | > 100 |  | > 100 |  | 34.1 |  | 75 |  | > 100 |  | 91.1 |  | 61.1 |
| COc1ccc(-c2cc(N3CCN(c4ccccc4)CC3)c(C#N)c(=O)o2)cc1 |  | > 100 |  | > 100 |  |  |  | > 100 |  | > 100 |  |  |  | > 100 |  | 41.5 |  | 77.6 |  |  |
| CCC(C)C(=O)c1c(O)c(C/C=C(\C)CCC=C(C)C)c(O)c2c(C(O)CC)cc(=O)oc12 (stereo not drawn) |  | 7.27 |  |  |  | 4.08 |  | 5.47 |  | 11.4 |  | 12.6 |  | 17.9 |  | 7.43 |  | 5.57 |  | 5.15 |
| O=[N+]([O-])c1cn[n+]([O-])c2ccccc12 |  | 26.5 |  | 8.52 |  | 26.2 |  | 28.4 |  | 18.4 |  | 7.28 |  | 25.6 |  | 22.7 |  | 26.1 |  |  |
| CCO/N=[N+](\[O-])N(CC)CC |  |  |  | > 100 |  | > 100 |  | > 100 |  | > 100 |  | > 100 |  | > 100 |  | > 100 |  | > 100 |  | > 100 |
| Cc1cn(Cc2ccccc2CCl)c(=O)[nH]c1=O |  | 45.7 |  | 31.7 |  | 35.3 |  | > 100 |  | 37.4 |  | 12.6 |  | 43.4 |  | 24.6 |  | 45.5 |  | 28.2 |
| COC(=O)/C=c1/c2ccccc2n2nc3ccccc3c12 |  | > 100 |  | > 100 |  | > 100 |  |  |  | > 100 |  | > 100 |  | > 100 |  | > 100 |  | > 100 |  | > 100 |
